US20110130355A1, “USE OF SOPHORICOSIDE IN THE MANUFACTURE OF MEDICAMENTS” (priority 2008, published 2011)
Marks after values point to notes of the source that are not given here.

Tests used:
articular chondrocytes = assay: Apoptotic profiles of articular chondrocytes (TUNEL staining); type: in vivo, SD rats; conditions: OVX rats, 11 weeks; for apoptotic cells in articular cartilage, in words: FIG. 10; for Apoptotic index of the articular chondrocytes, total: whole knee joint
Source text: When a cell is undergoing apoptosis, the chromosomal DNAs are fragmented in a gradual and staged manner. The chromosomal DNAs are firstly degraded into large fragments of 50-300 kb by endogenous nucleases. Next, about 30% of the chromosomal DNAs were randomly cleaved at internucleosomal regions by the Ca^2+ and Mg^2+ dependent endonucleases to form multimers of 180˜200 bp nucleosomal DNAs. The free 3′-ends resulted from DNA double-strand break or DNA single chain gapping can be labeled by adding a derivative formed by the deoxyribonucleotide and fluorescein, peroxidase, alkaline phosphatase by the terminal deoxynucleotidyl transferase. The apoptotic cells can be detected accordingly. Such methods are generally referred to as terminal deoxynucleotidyl transferase-mediated nick end labeling.
1) Section Dewaxing: The sections were placed in an incubator at 65° C. for 3 hours, and then immersed in xylene for 5 minutes×2, in 100% ethanol for 10 min×2, in 95% ethanol for 5 min×2, in 85% ethanol for 5 minutes, in 75% ethanol for 5 minutes, and in PBS for 5 minutes×2;
2) Pre-treatment: Each of the sections was incubated with 60 μl fresh protease K (20 μg/ml) in a humidified chamber at 37° C. for 20 minutes; and then rinsed with PBS for 2 minutes×2;
3) Elimination of endogenous peroxidases: The sections were treated with 3% H2O2-methanol for 5 minutes and washed by PBS for 5 minutes×2;
4) Equilibration: Each of the sections was rinsed with 75 μl equilibration solution for 10 seconds and decanted, and the residual water was sucked off;
5) Addition of TdT enzyme: […] working solution was added to each of the sections immediately with the […] control untreated, and the sections were placed in a humidified chamber at 37° C. for 1 hour;
6) Quenching: The sections were gently shook in the quenching solution for 15 minutes, and washed by PBS for 3 minutes×3, and decanted gently;
7) Visualization: Each of the sections was incubated with 65 μl antidigoxin-perioxidase in a humidified chamber at room temperature for 30 minutes, and washed by PBS for 2 minutes×4. After incubation with sufficient amount of the perioxidase substrate (75 μl) for 3˜6 minutes, each of the sections was visualized by microscopy;
8) Counterstaining: The sections were rinsed with flowing water for 3 minutes, and subsequently stained by hematoxylin for 10 seconds, then rinsed with flowing water for 10 minutes, immersed in 95% ethanol for 10 minutes×2, immersed in 100% ethanol for 10 minutes×2; placed in xylene for 10 minutes×2; and finally mounted in neutral resin.
The average of the indices for the four regions was regarded as the total apoptotic index for the indicated knee joint, and the average of the indices obtained from two persons was regarded as the final experimental result.
The apoptotic index=number of positive cells in the field/total number of chondrocytes in the field×100%.

[1] = Body weights of rats before and after the treatments; type: in vivo, SD rats; conditions: OVX rats, after treatment (11 weeks)
Method: OVX group and the intervention groups: The rats were anesthetized by intraperitoneal injection of 1% pentobarbital sodium at 5 ml/kg. After the onset of anesthesia, the rats were positioned face-down and dehaired at the third lumbar vertebra below the costal arch. The skin was sanitized by benzalkonium bromide and incised by about 1 cm. The subcutaneous tissue and the fascia were incised, and the muscle was bluntly separated. The peritoneum was carefully cut open. White fat was lifted carefully by using tissue forceps inserted to the abdominal cavity through the incision. The fat was gently turned over to expose the quincuncial ovary, which was then ligated by sterile 1 silk thread. The ovary was separated by cutting the oviduct by ophthalmic scissors. After hemostasis by compression, the fat was returned into the abdominal cavity. Subsequently, an incision was made on the opposite side and the same procedures were carried out to excise the ovary on the opposite side. The peritoneum, the fascia, the subcutaneous tissue, and the skin were sutured one by one. The incisions were sanitized. The rats were raised in the clean SPF animal chamber in the Animal Experimental Center of the Shanghai Institutes for Biological Sciences, CAS, with temperature maintained at 24° C., humidity maintained at 40˜60%, and a diurnal rhythm of 12 h/12 h. The rats were supplied with normal food and purified water ad libitum. The vehicle was 1% sodium carboxymethylcellulose (CMC-Na). The sham group and OVX group were administered the vehicle by gavage. Intervention groups were administered the following formulations of active agents dissolved in the vehicle: The rats were sacrificed by cervical dislocation after 11 weeks. Uteri were removed, weighted, and fixed in 4% paraformaldehyde (PFA). The whole right knee joints were removed and fixed in 4% PFA. The rats were weighted, and then sacrificed. The uteri were removed from the rats and determined for wet weights.

[2] = tested on: croton oil-induced ear edema; conditions: in vivo; cited from earlier work

## O=c1c(-c2ccc(O[C@@H]3O[C@H](CO)[C@@H](O)[C@H](O)[C@H]3O)cc2)coc2cc(O)cc(O)c12 [HDA, 3-[4-(β-D-glucopyranosyl)-benzyl]5,7-dihydro-4H-1-benzopyran-4-one (4′,5,7-trihydroxylisoflavone-4′-D-glucoside)]
Articular chondrocytes; sophoricoside 20 mg/kg/day
  apoptotic cells in articular cartilage, in words: The interventions other than HAD20 decreased the apoptotic chondrocytes
  Apoptotic index of the articular chondrocytes, lateral femur: 10.269 ± 1.313^□ %
  Apoptotic index of the articular chondrocytes, lateral tibia: 12.571 ± 1.226^□□ %
  Apoptotic index of the articular chondrocytes, medial femur: 14.779 ± 1.819^□□ %
  Apoptotic index of the articular chondrocytes, medial tibia: 13.125 ± 1.891^□□ %
  Apoptotic index of the articular chondrocytes, total: 12.711 ± 1.178^□□ %
Articular chondrocytes; sophoricoside 40 mg/kg/day
  apoptotic cells in articular cartilage, in words: weaker
  Apoptotic index of the articular chondrocytes, lateral femur: 7.991 ± 0.943%
  Apoptotic index of the articular chondrocytes, lateral tibia: 7.665 ± 0.976**^□ %
  Apoptotic index of the articular chondrocytes, medial femur: 10.779 ± 1.159%
  Apoptotic index of the articular chondrocytes, medial tibia: 9.581 ± 0.760*^□ %
  Apoptotic index of the articular chondrocytes, total: 9.004 ± 0.588**^□ %
Articular chondrocytes; sophoricoside 80 mg/kg/day
  apoptotic cells in articular cartilage, in words: less than OVX group and similar to normal articular cartilage
  Apoptotic index of the articular chondrocytes, lateral femur: 5.253 ± 0.923 %
  Apoptotic index of the articular chondrocytes, lateral tibia: 5.509 ± 0.847 %
  Apoptotic index of the articular chondrocytes, medial femur: 7.410 ± 0.872 %
  Apoptotic index of the articular chondrocytes, medial tibia: 6.558 ± 1.121 %
  Apoptotic index of the articular chondrocytes, total: 6.183 ± 0.738 %
[1]; sophoricoside 10 mg/kg/day
  Final body weight: 370.9 ± 5.7 g
[1]; sophoricoside 20 mg/kg/day
  Final body weight: 376.2 ± 6.5 g
[1]; sophoricoside 40 mg/kg/day
  Final body weight: 372.5 ± 6.8 g
[1]; sophoricoside 80 mg/kg/day
  Final body weight: 362.8 ± 3.4 g
[2]
  croton oil-induced ear edema: inhibit
